Source: patent US8168651B2, “Protein kinase modulators” (Cylene Pharmaceuticals, Inc., priority 2008, dated 2012)
pIC50: −log10 of the molar value. Like-named read-outs stand apart in the source and are kept apart here.

Tests used:
recombinant human CK2 = recombinant human CK2 (Homo sapiens (Human), UniProt P68400); test: CK2 assay (cell-free, 33P-ATP filter plate); type: biochemical; settings: 10 uM; read-out: CK2 % inhib @ 10 uM
[1] = test system: HCT-116 human colorectal carcinoma cells; test: Cell-proliferation assay using Alamar Blue dye; type: cell-based;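 note: cells exposed to compound for about 4 days, then Alamar Blue added and dye fluorescence read after about 4 h, compared with medium-only control wells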
recombinant human PIM1 = recombinant human PIM1 (Homo sapiens (Human), UniProt P11309); test: PIM-1 kinase activity in cell-free in vitro assay; type: biochemical; settings: for inhibition at 0.5 µM: read-out: PIM-1: % inh 500 nM
recombinant human PIM1, sequence (P11309 whole entry): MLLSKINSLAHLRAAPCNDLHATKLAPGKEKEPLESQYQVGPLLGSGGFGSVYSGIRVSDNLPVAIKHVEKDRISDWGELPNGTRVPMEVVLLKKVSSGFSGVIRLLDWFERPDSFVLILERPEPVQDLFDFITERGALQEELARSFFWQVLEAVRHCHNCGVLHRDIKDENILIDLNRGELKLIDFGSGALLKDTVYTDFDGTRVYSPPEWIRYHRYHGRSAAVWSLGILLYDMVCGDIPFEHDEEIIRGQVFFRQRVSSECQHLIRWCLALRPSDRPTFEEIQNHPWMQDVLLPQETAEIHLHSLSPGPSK

[2] = Homo sapiens, HCT-116, read-out: HCT-116 (uM), cell proliferation modulatory activity, HCT-116, first column
[3] = Homo sapiens, HCT-116, read-out: HCT-116 (uM), cell proliferation modulatory activity, HCT-116, second column
[4] = Homo sapiens, HCT-116, read-out: HCT-116 (uM), cell proliferation modulatory activity, HCT-116, second HCT-116 column (c8)
[5] = 500 nM compound, cell-free assay
[6] = Homo sapiens, HCT-116, HCT-116, first column, read-out: HCT-116 (uM), cell proliferation modulatory activity
[7] = Homo sapiens, HCT-116, HCT-116, second column, read-out: HCT-116 (uM), cell proliferation modulatory activity

recombinant human CK2, sequence (P68400 whole entry): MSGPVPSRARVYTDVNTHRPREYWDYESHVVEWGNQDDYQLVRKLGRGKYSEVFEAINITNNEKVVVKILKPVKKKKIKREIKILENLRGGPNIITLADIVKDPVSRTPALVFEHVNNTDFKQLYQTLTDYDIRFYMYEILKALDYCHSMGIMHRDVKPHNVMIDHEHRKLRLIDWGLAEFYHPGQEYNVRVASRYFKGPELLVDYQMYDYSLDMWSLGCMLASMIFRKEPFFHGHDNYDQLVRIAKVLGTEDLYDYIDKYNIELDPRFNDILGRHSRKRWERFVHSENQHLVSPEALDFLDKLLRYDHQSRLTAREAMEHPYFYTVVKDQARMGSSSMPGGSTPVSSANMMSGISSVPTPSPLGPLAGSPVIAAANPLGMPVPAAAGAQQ
recombinant human CK2, sequence (P67870 whole entry partner): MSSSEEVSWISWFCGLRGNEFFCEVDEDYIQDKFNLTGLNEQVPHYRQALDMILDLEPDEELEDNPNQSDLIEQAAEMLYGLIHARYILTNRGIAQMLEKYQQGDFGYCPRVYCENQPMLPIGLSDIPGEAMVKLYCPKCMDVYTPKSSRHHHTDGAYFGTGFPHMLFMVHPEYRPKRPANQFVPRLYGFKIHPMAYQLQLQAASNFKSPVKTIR

inhibition at 0.5 µM (recombinant human PIM1; 500 nM compound, cell-free) [%] | IC50 [1, 3] [µM] | SMILES | also measured
– | – | COC(=O)c1ccc2c(c1)[nH]c(=O)c1ccsc12 | inhibition at 10 µM (recombinant human CK2): 17%
– | – | O=C(O)c1ccc2c(c1)[nH]c(=O)c1cc(Br)sc12 | inhibition at 10 µM (recombinant human CK2): 5%
– | – | N#Cc1ccc2c(c1)[nH]c(=O)c1ccsc12 | inhibition at 10 µM (recombinant human CK2): -5%
– | – | O=C(O)c1ccc2c(c1)nc(Nc1ccc(N3CCOCC3)cc1)c1ccsc12 | IC50 [1, 2]: 10 µM; inhibition at 0.5 µM (recombinant human PIM1): 1.17%
-3.22 | – | COc1ccc(OC)c(Nc2nc3cc(C(=O)O)ccc3c3sccc23)c1 | IC50 [1, 2]: 10 µM
31.9 | > 10 | CC(C)Oc1cccc(Nc2nc3cc(-c4nnn[nH]4)ccc3c3sccc23)c1 | –
55.8 | 15 | COc1cc(Nc2nc3cc(-c4nnn[nH]4)ccc3c3sccc23)cc(OC)c1 | pIC50 (recombinant human PIM1; cell-free): 6.33
35 | > 10 | COc1cc(Nc2nc3cc(-c4nnn[nH]4)ccc3c3sccc23)ccc1F | –
57.7 | > 10 | CCOc1cccc(Nc2nc3cc(-c4nnn[nH]4)ccc3c3sccc23)c1 | pIC50 (recombinant human PIM1; cell-free): 6.42
61 | > 10 | CCc1cccc(Nc2nc3cc(-c4nnn[nH]4)ccc3c3sccc23)c1 | pIC50 (recombinant human PIM1; cell-free): < 5.96
26.7 | > 10 | c1cc2c(Nc3ccc4c(c3)OCCO4)nc3cc(-c4nnn[nH]4)ccc3c2s1 | –
52.8 | > 10 | O=C(O)c1ccc2c(c1)nc(Nc1cc(Cl)ccc1F)c1ccsc12 | pIC50 (recombinant human PIM1; cell-free): 6.38
16.8 | > 10 | CCOc1cccc(Nc2nc3cc(C(=O)O)ccc3c3sccc23)c1 | –
-10.2 | > 10 | O=C(O)c1ccc2c(c1)nc(Nc1cccc(Oc3ccccc3)c1)c1ccsc12 | –
21.7 | > 10 | NS(=O)(=O)c1cccc(Nc2nc3cc(C(=O)O)ccc3c3sccc23)c1 | –
21 | > 10 | O=C(c1cccc(Nc2nc3cc(-c4nnn[nH]4)ccc3c3sccc23)c1)N1CCOCC1 | –
71.1 | > 10 | CN(C)CCNC(=O)c1cccc(Nc2nc3cc(-c4nnn[nH]4)ccc3c3sccc23)c1 | pIC50 (recombinant human PIM1; cell-free): 6.42
48 | > 10 | COC(=O)CNC(=O)c1cccc(Nc2nc3cc(-c4nnn[nH]4)ccc3c3sccc23)c1 | –
29.6 | > 10 | O=C(NCc1cccnc1)c1cccc(Nc2nc3cc(-c4nnn[nH]4)ccc3c3sccc23)c1 | –
49.1 | > 10 | CN(C)C(=O)c1cccc(Nc2nc3cc(-c4nnn[nH]4)ccc3c3sccc23)c1 | –
48.4 | > 10 | CC(=O)N1CCN(C(=O)c2cccc(Nc3nc4cc(-c5nnn[nH]5)ccc4c4sccc34)c2)CC1 | –
13.3 | > 10 | CCCNC(=O)c1cccc(Nc2nc3cc(C(=O)O)ccc3c3sccc23)c1 | –
46.4 | > 10 | O=C(O)c1ccc2c(c1)nc(Nc1cccc(C(=O)N3CCOCC3)c1)c1ccsc12 | –

inhibition at 0.5 µM (recombinant human PIM1; 500 nM compound, cell-free) [%] | IC50 [1, 3] [µM] | SMILES | also measured
24 | > 10 | O=C(O)CNC(=O)c1cccc(Nc2nc3cc(C(=O)O)ccc3c3sccc23)c1 | –
74.7 | > 10 | CN(C)CCNC(=O)c1cccc(Nc2nc3cc(C(=O)O)ccc3c3sccc23)c1 | pIC50 (recombinant human PIM1; cell-free): 6.36
37.5 | > 10 | O=C(O)c1ccc2c(c1)nc(Nc1cccc(C(=O)NC3CC3)c1)c1ccsc12 | –
38 | > 10 | CNC(=O)Cc1cccc(Nc2nc3cc(C(=O)O)ccc3c3sccc23)c1 | –
57.9 | > 10 | O=C(O)c1ccc2c(c1)nc(Nc1cccc(Br)c1)c1ccsc12 | pIC50 (recombinant human PIM1; cell-free): 6.26
27.6 | > 10 | O=C(O)c1ccc2c(c1)nc(Nc1cccc(Cl)c1F)c1ccsc12 | –
51.9 | > 10 | O=C(O)c1ccc2c(c1)nc(Nc1ccc3[nH]ccc3c1)c1ccsc12 | pIC50 (recombinant human PIM1; cell-free): 6.17
59.1 | > 10 | Cc1cccc(Nc2nc3cc(C(=O)O)ccc3c3sccc23)c1 | pIC50 (recombinant human PIM1; cell-free): 6.28
47.2 | > 10 | O=C(O)c1ccc2c(c1)nc(Nc1ccc3cc[nH]c3c1)c1ccsc12 | –
51.6 | > 10 | CCc1cccc(Nc2nc3cc(C(=O)O)ccc3c3sccc23)c1 | pIC50 (recombinant human PIM1; cell-free): 6.09
40.5 | > 10 | O=C(O)c1ccc2c(c1)nc(Nc1cccc(I)c1)c1ccsc12 | –
72.9 | > 10 | O=C(O)c1ccc2c(c1)nc(Nc1cccc(F)c1F)c1ccsc12 | pIC50 (recombinant human PIM1; cell-free): 6.07
82.6 | > 10 | O=C(O)c1ccc2c(c1)nc(Nc1cc(F)cc(C(F)(F)F)c1)c1ccsc12 | pIC50 (recombinant human PIM1; cell-free): 6.47
51 | > 10 | O=C(O)c1cc(F)cc(Nc2nc3cc(C(=O)O)ccc3c3sccc23)c1 | pIC50 (recombinant human PIM1; cell-free): 6.28
67.1 | > 10 | O=C(O)c1ccc2c(c1)nc(Nc1cc(F)ccc1F)c1ccsc12 | pIC50 (recombinant human PIM1; cell-free): 6.51
75.4 | > 10 | O=C(O)c1ccc2c(c1)nc(Nc1cccc(S(=O)(=O)NC3CC3)c1)c1ccsc12 | pIC50 (recombinant human PIM1; cell-free): 6.25
82 | > 10 | Fc1cc(Cl)cc(Nc2nc3cc(-c4nnn[nH]4)ccc3c3sccc23)c1 | pIC50 (recombinant human PIM1; cell-free): 6.25
64.6 | > 10 | C#Cc1cccc(Nc2nc3cc(-c4nnn[nH]4)ccc3c3sccc23)c1 | pIC50 (recombinant human PIM1; cell-free): 6.15
– | – | C#Cc1cccc(Nc2nc3cc(C(=O)O)ccc3c3cnc(NCCOC)nc23)c1 | IC50 [1, 4]: 8.05 µM; inhibition at 0.5 µM (recombinant human PIM1; [5]): 55.5%; pIC50 (recombinant human PIM1; cell-free assay): < 5.96
– | – | O=C(O)c1ccc2c(c1)nc(Nc1cc(-c3ccccc3)[nH]n1)c1ccncc12 | IC50 ([1]; Homo sapiens, HCT-116, second HCT-116 column (c8), read-out: HCT-116 (uM) cell proliferation modulatory activity): > 10 µM; inhibition at 0.5 µM (recombinant human PIM1; [5]): 56%; pIC50 (recombinant human PIM1; cell-free assay): < 5.96
-30 | – | COC(=O)c1ccc2c(c1)nc(Cl)c1ccsc12 [drawing 1375] | IC50 [1, 6]: 10 µM
1.05 | – | O=C(O)c1ccc2c(c1)nc(OCCCO)c1ccccc12 [drawing 1388] | IC50 [1, 6]: 10 µM
0.802 | – | COC(=O)c1ccc2c(c1)[nH]c(=O)c1ccncc12 [drawing 1390] | IC50 [1, 2]: 10 µM

inhibition at 0.5 µM (recombinant human PIM1; 500 nM compound, cell-free) [%] | IC50 [1, 3] [µM] | SMILES | also measured
35 | – | CN(C)CCNc1nc2cc(C(=O)O)ccc2c2ccccc12 [drawing 1391] | IC50 [1, 2]: 10 µM
28.1 | – | O=C(O)c1ccc2c(c1)nc(Nc1ccccc1)c1ccccc12 [drawing 1394] | IC50 [1, 2]: 10 µM
-20.2 | – | N#Cc1ccc2c(c1)nc(Cl)c1ccsc12 [drawing 1398] | IC50 [1, 6]: 10 µM
-22 | – | c1ccc(Nc2nc3ccccc3c3sccc23)cc1 [drawing 1399] | IC50 [1, 6]: 10 µM
-24.2 | – | CN(C)CCNc1nc2ccccc2c2sccc12 [drawing 1400] | IC50 [1, 6]: 2.3 µM
35.7 | – | O=C(O)c1ccc2c(c1)nc(N1CCOCC1)c1ccsc12 [drawing 1401] | IC50 [1, 6]: 10 µM
-3.84 | – | CN(C)CCNc1nc2cc(C#N)ccc2c2sccc12 [drawing 1429] | IC50 [1, 6]: 0.4 µM
-22.3 | – | N#Cc1ccc2c(c1)nc(Nc1ccccc1)c1ccsc12 [drawing 1431] | IC50 [1, 6]: 10 µM
-38.1 | – | NC(=O)c1ccc2c(c1)nc(Nc1ccccc1)c1ccsc12 [drawing 1432] | IC50 [1, 7]: 8.7 µM
5.78 | – | O=c1[nH]c(-c2ccc3c(c2)nc(Nc2ccccc2)c2ccsc23)no1 [drawing 1434] | IC50 [1, 7]: 10 µM
3.3 | – | O=c1[nH]c2cc(-c3nnn[nH]3)ccc2c2cnccc12 [drawing 1444] | IC50 [1, 7]: 15 µM
37.6 | > 10 | Cc1cc(CNC(=O)c2cccc(Nc3nc4cc(-c5nnn[nH]5)ccc4c4sccc34)c2)no1 [drawing 1507] | –
– | – | Cc1cc(CNC(=O)c2cccc(Nc3nc4cc(-c5nnn[nH]5)ccc4c4sccc34)c2)no1 [drawing 1508] | IC50 ([1]; read-out: HCT-116 (uM), cell proliferation modulatory activity, HCT-116): > 10 µM; PIM-1: % inh 500 nM (recombinant human PIM1; 500 nM compound, cell-free): 55.402%; pIC50 (recombinant human PIM1; cell-free): 6.24
80.9 | > 10 | O=C(O)c1ccc2c(c1)nc(NCCc1ccccc1)c1ccncc12 [drawing 1511] | pIC50 (recombinant human PIM1; cell-free): 6.27
44.4 | > 10 | O=C(O)c1ccc2c(c1)nc(NCc1ccccc1)c1ccncc12 [drawing 1557] | pIC50 (recombinant human PIM1; cell-free): 6.17
– | – | CCOc1ncc2c(n1)c(NC1CC1)nc1cc(C(=O)O)ccc12 [drawing 1615] | IC50 [1, 4]: > 10 µM; inhibition at 0.5 µM (recombinant human PIM1; [5]): 11.1%
– | – | O=C(O)c1ccc2c(c1)nc(NCc1cccnc1)c1nc(NC3CC3)ncc12 [drawing 1625] | IC50 [1, 4]: > 10 µM; inhibition at 0.5 µM (recombinant human PIM1; [5]): 26.9%
– | – | O=C(O)c1ccc2c(c1)nc(NCc1ccccc1)c1nc(NC3CC3)ncc12 [drawing 1626] | IC50 [1, 4]: > 10 µM; inhibition at 0.5 µM (recombinant human PIM1; [5]): 25.3%
– | – | Cc1cc(Nc2ncc3c(n2)c(Nc2ccc(F)c(Cl)c2)nc2cc(C(=O)O)ccc23)[nH]n1 [drawing 1635] | IC50 [1, 4]: > 10 µM; inhibition at 0.5 µM (recombinant human PIM1; [5]): 66.1%
– | – | O=C(O)c1ccc2c(c1)nc(NC1CC1)c1ccncc12 [drawing 1639] | IC50 [1, 4]: > 10 µM; inhibition at 0.5 µM (recombinant human PIM1; [5]): 28.1%
– | – | Nc1ncc2c(n1)c(NC1CC1)nc1cc(C(=O)O)ccc12 [drawing 1644] | IC50 [1, 4]: > 10 µM; inhibition at 0.5 µM (recombinant human PIM1; [5]): 60.1%; pIC50 (recombinant human PIM1; cell-free assay): 6.36
